In the assay the test system is 26S proteasome chymotrypsin-like activity (human). Put plainly: proteasome chymotrypsin-like activity inhibition in cells, dose response, mechanism study for HSF1 activator project, cell-based, U2OS, Proteasome-Glo luminescence, dry powder, set 2 (AID 624445). The settings on record: for activity change, negative = inhibition: at 38 µM (top of the series).

We go through eleven compounds from PubChem BioAssay AID624445 (Broad Institute, 2012).

Records with an inconclusive call do not appear. Active and inactive are the calls of the source.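 The calls were made as follows: active = fitted curve drops past -35% activity change at a concentration under twice the top valid tested dose; inconclusive = no clear call, values can overlap the other calls; inactive = the rest, including effects in the wrong direction.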

In the case of `Nc1nc(SCc2ccc(Cl)cc2Cl)ns1`, the activity change, negative = inhibition is 2.27% (inactive). Same read-out and setting: then `Cc1ccccc1CSc1n[nH]c(N)n1`, with 9.01% (inactive). Same read-out and setting: the value for `Cc1ccccc1CSc1nnc(N)s1` was -25.3% (inactive). For the compound `Cc1cccc(CSc2nsc(N)n2)c1`, the AC35 was 35.2 µM. Turning to `Nc1nc(SCc2ccccc2Cl)ns1`, the activity change, negative = inhibition was -20.5% (inactive). Take `Nc1nc(SCc2ccccc2)ns1`: the AC35 is 37.2 µM. As to `Nc1nc(SCc2ccc(F)cc2)ns1`, the activity change, negative = inhibition was -32.9% (inactive).

With `Nc1nc(S(=O)(=O)Cc2ccccc2)ns1`, the activity change, negative = inhibition is -17.1% (inactive).

Regarding `Cc1ccccc1CSc1nsc(N)n1`, the activity change, negative = inhibition was -21.8% (inactive). As to `O=C(Nc1nc(SCc2ccccc2)ns1)C1CCC1`, the AC35 was 30.4 µM. For the compound `O=C(Nc1nc(SCc2ccccc2)ns1)C1CC=CCC1` (stereo unspecified), the activity change, negative = inhibition was -30.5% (inactive).
